Measured values as given in US20110178104A1, “Anti-Heparin Compounds” (POLYMEDIX INC., priority 2010, published 2011).
Starred links: 1 amine or outer side, 2 acyl side, 3 side chain; linkers in the order of their positions; H or OH if unused. Non-standard residues stand in square brackets, D forms with d. Residues, ends and D or L forms follow the SMILES beside them. *: point of attachment. NH(3-CONH2-4-OMe-phenyl) = COc1ccc(N*)cc1C(N)=O; 3Abz(6-OMe) = COc1ccc(N[*:1])cc1C(=O)[*:2]

Experiments:
[1] = system: enoxaparin (ENOX); assay: FXa chromogenic assay (absence of plasma), enoxaparin; conditions: enoxaparin 0.1 μg/mL, absence of plasma
Experimental: (§1) Human antithrombin was mixed with an anticoagulant agent (a LMWH or fondaparinux); final concentrations were 0.22 μg/mL for the LMWHs and 0.07 μg/mL for fondaparinux. […] Absorbance was read every 30 seconds over a 4 minute period in a SpectraMax 250 instrument (Molecular Devices, Inc.). EC50 values are determined by a curve-fit program (SoftMax Pro) using the following formula:
(§2) FXa Chromogenic Assay (absence of plasma). Human antithrombin was mixed with an anticoagulant (a LMWH or fondaparinux); final concentrations were 0.1 μg/mL for the LMWHs and 0.02 μg/mL for fondaparinux. […] Absorbance was read every 30 seconds over a 4 minute period in a SpectraMax 250 instrument (Molecular Devices Inc.™) The slope of absorbance vs time was calculated for each compound concentration. EC50 values were determined using a curve fit program (GraphPad Prism 5).

[2] = system: unfractionated heparin (UFH); assay: aPTT clotting assay, UFH 0.2 U/mL in plasma (Example 7); type: biochemical; conditions: UFH 0.2 U/mL in plasma
Experimental: aPTT clotting Assay. Unfractionated heparin was mixed with plasma at a final concentration of 0.2 U/mL. […] The ACL Elite Hemostasis analyzer (Beckman Coulter™) was used to add aPTT reagent (HemosIL SynthASil) to supplemented plasma. Clotting was initiated by addition of CaCl2 and time to clot was recorded.

[3] = system: fondaparinux (FONDAPX); assay: FXa chromogenic assay (absence of plasma), fondaparinux; conditions: fondaparinux 0.02 μg/mL, absence of plasma
Experimental: as §1, §2

| SMILES | ENOX (FXa) EC50 [1] [µg/mL] | UFH (aPTT) EC50 [2] | FONDAPX (FXa) EC50 [3] [µg/mL] |
| --- | --- | --- | --- |
| COc1ccc(NC(=O)[C@@H](CCCNC(=N)N)NC(=O)c2cc(NC(=O)[C@@H](CCCNC(=N)N)NC(=O)c3cc(NC(=O)[C@@H](CCCNC(=N)N)NC(=O)c4cc(NC(=O)[C@@H](C)NC(=O)CCCCNC(=N)N)ccc4OC)ccc3OC)ccc2OC)cc1C(N)=O [Compound 49] | 0.16 | 1.42 µg/mL | 1.03 |
| COc1ccc(NC(=O)[C@@H](CCCNC(=N)N)NC(=O)c2cc(NC(=O)[C@@H](CCCNC(=N)N)NC(=O)c3cc(NC(=O)[C@@H](CCCNC(=N)N)NC(=O)c4cc(NC(=O)CCCCNC(=N)N)ccc4OC)ccc3OC)ccc2OC)cc1C(N)=O [Compound 50] | 0.22 | 1.67 µg/mL | 1.12 |
| COc1ccc(NC(=O)[C@@H](CCCNC(=N)N)NC(=O)c2cc(NC(=O)[C@@H](CCCNC(=N)N)NC(=O)c3cc(NC(=O)[C@@H](CCCNC(=N)N)NC(=O)c4cc(NC(C)=O)ccc4OC)ccc3OC)ccc2OC)cc1C(=O)NCCN [Compound 52] | 0.35 | 2.13 µg/mL | 1.90 |
| COc1ccc(NC(=O)[C@@H](CCCNC(=N)N)NC(=O)c2cc(NC(=O)[C@@H](CCCNC(=N)N)NC(=O)c3cc(NC(=O)[C@@H](CCCNC(=N)N)NC(=O)c4cc(NC(C)=O)ccc4OC)ccc3OC)ccc2OC)cc1C(=O)NCCCCCN [Compound 53] | 0.21 | 2.08 µg/mL | 1.12 |
| COc1ccc(NC(=O)[C@H](N)CCCNC(=N)N)cc1C(=O)N[C@H](CCCNC(=N)N)C(=O)Nc1ccc(OC)c(C(=O)N[C@H](CCCNC(=N)N)C(=O)Nc2ccc(OC)c(C(=O)N[C@H](CCCNC(=N)N)C(=O)Nc3cccc(C(N)=O)c3)c2)c1 [Compound 67] | 0.33 | 1.75 µg/mL | 5.19 |
| COc1ccc(NC(=O)[C@@H](CCCNC(=N)N)NC(=O)c2cccc(NC(=O)[C@@H](CCCNC(=N)N)NC(=O)c3cc(NC(=O)[C@@H](CCCNC(=N)N)NC(=O)c4cc(NC(=O)[C@H](N)CCCNC(=N)N)ccc4OC)ccc3OC)c2)cc1C(N)=O [Compound 68] | 0.29 | 1.99 µg/mL | 4.26 |
| COc1ccc(NC(=O)[C@@H](CCCNC(=N)N)NC(=O)c2cc(NC(=O)[C@@H](CCCNC(=N)N)NC(=O)c3cccc(NC(=O)[C@@H](CCCNC(=N)N)NC(=O)c4cc(NC(=O)[C@H](N)CCCNC(=N)N)ccc4OC)c3)ccc2OC)cc1C(N)=O [Compound 69] | 0.19 | 1.58 µg/mL | 2.74 |
| COc1ccc(NC(=O)[C@@H](CCCNC(=N)N)NC(=O)c2cc(NC(=O)[C@@H](CCCNC(=N)N)NC(=O)c3cc(NC(=O)[C@@H](CCCNC(=N)N)NC(=O)c4cc(NC(=O)[C@H](N)CO)ccc4OC)ccc3OC)ccc2OC)cc1C(N)=O [Compound 70] | 0.33 | 1.55 µg/mL | 1.59 |
| COc1ccc(NC(=O)[C@@H](CCCNC(=N)N)NC(=O)c2cc(NC(=O)[C@@H](CCCNC(=N)N)NC(=O)c3cc(NC(=O)[C@@H](CCCNC(=N)N)NC(=O)c4cc(NC(=O)[C@H](N)Cc5c[nH]c6ccccc56)ccc4OC)ccc3OC)ccc2OC)cc1C(N)=O [Compound 71] | 0.87 | 2.58 µg/mL | 0.86 |
| COc1ccc(NC(=O)[C@@H](CCCNC(=N)N)NC(=O)c2cc(NC(=O)[C@@H](CCCNC(=N)N)NC(=O)c3cc(NC(=O)[C@@H](CCCNC(=N)N)NC(=O)c4cc(NC(=O)[C@H](N)CC(N)=O)ccc4OC)ccc3OC)ccc2OC)cc1C(N)=O [Compound 72] | 0.22 | 2.11 µg/mL | 1.22 |
| COc1ccc(NC(=O)[C@@H](CCCNC(=N)N)NC(=O)c2cc(NC(=O)[C@@H](CCCNC(=N)N)NC(=O)c3cc(NC(=O)[C@H](C)NC(=O)[C@@H](CCCNC(=N)N)NC(=O)c4cc(NC(=O)[C@H](N)CCCNC(=N)N)ccc4OC)ccc3OC)ccc2OC)cc1C(N)=O [Compound 73] (H-[dR][3Abz(6-OMe)][dR]A[3Abz(6-OMe)][dR][3Abz(6-OMe)][dR]-{NH(3-CONH2-4-OMe-phenyl)}) | 2.49 | 5.16 µg/mL | 17.92 |
| COc1ccc(NC(=O)[C@@H](CCCNC(=N)N)NC(=O)c2cc(NC(=O)[C@@H](CCCNC(=N)N)NC(=O)[C@H](C)NC(=O)c3cc(NC(=O)[C@@H](CCCNC(=N)N)NC(=O)c4cc(NC(=O)[C@H](N)CCCNC(=N)N)ccc4OC)ccc3OC)ccc2OC)cc1C(N)=O [Compound 74] (H-[dR][3Abz(6-OMe)][dR][3Abz(6-OMe)]A[dR][3Abz(6-OMe)][dR]-{NH(3-CONH2-4-OMe-phenyl)}) | 5.13 | 5.20 µg/mL | 47.76 |
| COc1ccc(NC(=O)[C@@H](CCCNC(=N)N)NC(=O)c2cc(NC(=O)[C@H](C)NC(=O)[C@@H](CCCNC(=N)N)NC(=O)c3cc(NC(=O)[C@@H](CCCNC(=N)N)NC(=O)c4cc(NC(=O)[C@H](N)CCCNC(=N)N)ccc4OC)ccc3OC)ccc2OC)cc1C(N)=O [Compound 75] (H-[dR][3Abz(6-OMe)][dR][3Abz(6-OMe)][dR]A[3Abz(6-OMe)][dR]-{NH(3-CONH2-4-OMe-phenyl)}) | 3.71 | 4.80 µg/mL | 44.99 |
| COc1ccc(NC(=O)[C@H](CCCCN)NC(=O)c2cc(NC(=O)[C@H](C)NC(=O)c3cc(NC(=O)[C@H](CCCCN)NC(=O)c4cc(NC(=O)[C@@H](N)CCCCN)ccc4OC)ccc3OC)ccc2OC)cc1C(N)=O [Compound 76] | 1.49 | 6.00 µg/mL | 10.50 |
| COc1ccc(NC(=O)[C@H](CCCCN)NC(=O)c2cc(NC(=O)[C@H](CCCCN)NC(=O)c3cc(NC(=O)[C@H](C)NC(=O)c4cc(NC(=O)[C@@H](N)CCCCN)ccc4OC)ccc3OC)ccc2OC)cc1C(N)=O [Compound 77] | 0.61 | 4.55 µg/mL | 2.47 |
| COc1ccc(NC(=O)[C@H](CCCNC(=N)N)NC(=O)c2cc(NC(=O)[C@H](CCCCN)NC(=O)c3cc(NC(=O)[C@H](CCCCN)NC(=O)c4cc(NC(=O)[C@@H](N)CCCCN)ccc4OC)ccc3OC)ccc2OC)cc1C(N)=O [Compound 78] | 0.49 | 2.99 µg/mL | 6.28 |
| COc1ccc(NC(=O)[C@H](CCCCN)NC(=O)c2cc(NC(=O)[C@H](CCCNC(=N)N)NC(=O)c3cc(NC(=O)[C@H](CCCCN)NC(=O)c4cc(NC(=O)[C@@H](N)CCCCN)ccc4OC)ccc3OC)ccc2OC)cc1C(N)=O [Compound 79] | 0.41 | 3.02 µg/mL | 7.07 |
| COc1ccc(NC(=O)[C@H](CCCCN)NC(=O)c2cc(NC(=O)[C@H](CCCCN)NC(=O)c3cc(NC(=O)[C@H](CCCNC(=N)N)NC(=O)c4cc(NC(=O)[C@@H](N)CCCCN)ccc4OC)ccc3OC)ccc2OC)cc1C(N)=O [Compound 80] | 0.35 | inactive | 4.34 |
| COc1ccc(NC(=O)[C@H](CCCCN)NC(=O)c2cc(NC(=O)[C@H](CCCCN)NC(=O)c3cc(NC(=O)[C@H](CCCCN)NC(=O)c4cc(NC(=O)[C@@H](N)CCCNC(=N)N)ccc4OC)ccc3OC)ccc2OC)cc1C(N)=O [Compound 81] | 0.26 | 1.97 µg/mL | 3.23 |
| COc1ccc(NC(=O)[C@@H](CCCNC(=N)N)NC(=O)c2cc(NC(=O)[C@@H](CCCNC(=N)N)NC(=O)c3cc(NC(=O)[C@H](CCCNC(N)=O)NC(=O)c4cc(NC(=O)[C@H](N)CCCNC(=N)N)ccc4OC)ccc3OC)ccc2OC)cc1C(N)=O [Compound 83] | 1.02 | 4.73 µg/mL | 14.79 |
| COc1ccc(NC(=O)[C@@H](Cc2c[nH]c3ccccc23)NC(=O)c2cc(NC(=O)[C@@H](CCCNC(=N)N)NC(=O)c3cc(NC(=O)[C@@H](CCCNC(=N)N)NC(=O)c4cc(NC(=O)[C@H](N)CCCNC(=N)N)ccc4OC)ccc3OC)ccc2OC)cc1C(N)=O [Compound 84] | 0.32 | 3.09 µg/mL | 1.99 |
| N=C(N)NCCCCC(=O)Nc1cc(C(F)(F)F)cc(NC(=O)c2ccc(C(=O)Nc3cc(C(F)(F)F)cc(NC(=O)CCCCNC(=N)N)c3SCCN)cc2)c1SCCN [Compound 87] | 6.35 | >10 µg/mL | 15.91 |
| COc1cc(C(=O)Nc2cc(C(F)(F)F)cc(NC(=O)CCCCNC(=N)N)c2SCCN)c(OC)cc1C(=O)Nc1cc(C(F)(F)F)cc(NC(=O)CCCCNC(=N)N)c1SCCN [Compound 88] | 0.24 | 4.30 µg/mL | 1.38 |
| COc1ccc(NC(=O)[C@H](CCCCN)NC(=O)c2cc(NC(=O)[C@H](CCCCN)NC(=O)c3cc(NC(=O)[C@H](CCCCN)NC(=O)c4cc(NC(=O)[C@@H](N)CCCCN)ccc4OC)ccc3OC)ccc2OC)cc1C(N)=O [Compound 90] | 0.093 | 0.9713 µg/mL | 0.272 |
| COc1ccc(NC(=O)[C@H](CCCCN)NC(=O)c2cc(NC(=O)[C@H](CCCCN)NC(=O)c3cc(NC(=O)[C@H](CCCCN)NC(=O)c4cccc(NC(=O)[C@@H](N)CCCCN)c4)ccc3OC)ccc2OC)cc1C(N)=O [Compound 91] | 0.58 | 2.03 µg/mL | 13.11 |
